Results from PubChem BioAssay AID248 (DTP/NCI, 2004).
Values joined by “and” are separate entries in the source; they are usually repeats but may differ in a detail not shown here. Identical values can stand only once. Inconclusive results and toxic doses are left out. No stated cut-off is given here; in the data, active means T/C of 150% or more; inactive means T/C below 125%.

System: L1210 leukemia ip in BDF1 mice, survival T/C
Assay: NCI In Vivo Anticancer Drug Screen. Data for tumor model L1210 Leukemia (intraperitoneal) in B6D2F1 (BDF1) mice
Details: endpoint: mean survival time, higher = longer survival
How it was run: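 Transplantable tumor model; survival measured in treated vs vehicle control mice. Value = treated/control.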

[1] = dose: 50.0 mg/kg/injection, schedule: Q01DX009 (ip), vehicle: Klucel (hydroxypropylcellulose) (HPC)
[2] = dose: 100.0 mg/kg/injection, schedule: Q01DX001 (ip), vehicle: Klucel (hydroxypropylcellulose) (HPC)
[3] = dose: 100.0 mg/kg/injection, schedule: Q01DX009 (ip), vehicle: Klucel (hydroxypropylcellulose) (HPC)
[4] = dose: 200.0 mg/kg/injection, schedule: Q01DX009 (ip), vehicle: Klucel (hydroxypropylcellulose) (HPC)
[5] = dose: 100.0 mg/kg/injection, schedule: Q01DX009 (ip), vehicle: saline with Tween-80
[6] = dose: 200.0 mg/kg/injection, schedule: Q01DX009 (ip), vehicle: saline with Tween-80

Measured: T/C

O=C1C(=C(C(F)(F)F)C(F)(F)F)CCc2ccccc21
inactive: [1] 95 % of control | [2] 91 % of control | [3] 93 % of control | dose: 200.0 mg/kg/injection, schedule: Q01DX001 (ip), vehicle: Klucel (hydroxypropylcellulose) (HPC) 91 % of control

O=C(CCCN1CCC(O)(c2cccc(C(F)(F)F)c2)CC1)c1ccc(F)cc1
inactive: dose: 0.04 mg/kg/injection, schedule: Q03HX024 (ip), vehicle: Klucel (hydroxypropylcellulose) (HPC) 102 % of control | dose: 0.09 mg/kg/injection, schedule: Q03HX024 (ip), vehicle: Klucel (hydroxypropylcellulose) (HPC) 107 % of control | dose: 0.19 mg/kg/injection, schedule: Q03HX024 (ip), vehicle: Klucel (hydroxypropylcellulose) (HPC) 105 % of control | dose: 0.39 mg/kg/injection, schedule: Q03HX024 (ip), vehicle: Klucel (hydroxypropylcellulose) (HPC) 107 % of control | dose: 0.78 mg/kg/injection, schedule: Q03HX004 (ip), vehicle: Klucel (hydroxypropylcellulose) (HPC) 96 % of control | dose: 0.78 mg/kg/injection, schedule: Q03HX024 (ip), vehicle: Klucel (hydroxypropylcellulose) (HPC) 107 % of control | dose: 1.56 mg/kg/injection, schedule: Q01DX009 (ip), vehicle: Klucel (hydroxypropylcellulose) (HPC) 111 % of control | dose: 1.56 mg/kg/injection, schedule: Q03HX004 (ip), vehicle: Klucel (hydroxypropylcellulose) (HPC) 91 % of control | dose: 1.56 mg/kg/injection, schedule: Q03HX024 (ip), vehicle: Klucel (hydroxypropylcellulose) (HPC) 97 % of control | dose: 2.0 mg/kg/injection, schedule: Q01DX009 (ip), vehicle: Klucel (hydroxypropylcellulose) (HPC) 100 % of control | dose: 3.12 mg/kg/injection, schedule: Q01DX009 (ip), vehicle: Klucel (hydroxypropylcellulose) (HPC) 107 % of control and 122 % of control | dose: 3.12 mg/kg/injection, schedule: Q03HX024 (ip), vehicle: Klucel (hydroxypropylcellulose) (HPC) 100 % of control and 86 % of control | dose: 3.12 mg/kg/injection, schedule: Q04DX003 (ip), vehicle: Klucel (hydroxypropylcellulose) (HPC) 91 % of control and 101 % of control | dose: 4.0 mg/kg/injection, schedule: Q01DX009 (ip), vehicle: Klucel (hydroxypropylcellulose) (HPC) 92 % of control | dose: 6.25 mg/kg/injection, schedule: Q01DX001 (ip), vehicle: Klucel (hydroxypropylcellulose) (HPC) 106 % of control | dose: 6.25 mg/kg/injection, schedule: Q01DX009 (ip), vehicle: Klucel (hydroxypropylcellulose) (HPC) 110 % of control | dose: 6.25 mg/kg/injection, schedule: Q04DX003 (ip), vehicle: Klucel (hydroxypropylcellulose) (HPC) 100 % of control and 102 % of control and 108 % of control | dose: 12.5 mg/kg/injection, schedule: Q01DX001 (ip), vehicle: Klucel (hydroxypropylcellulose) (HPC) 106 % of control | dose: 12.5 mg/kg/injection, schedule: Q01DX009 (ip), vehicle: Klucel (hydroxypropylcellulose) (HPC) 121 % of control | dose: 12.5 mg/kg/injection, schedule: Q04DX003 (ip), vehicle: Klucel (hydroxypropylcellulose) (HPC) 94 % of control and 103 % of control | dose: 18.75 mg/kg/injection, schedule: Q01DX001 (ip), vehicle: Klucel (hydroxypropylcellulose) (HPC) 91 % of control | dose: 25.0 mg/kg/injection, schedule: Q01DX001 (ip), vehicle: Klucel (hydroxypropylcellulose) (HPC) 104 % of control and 119 % of control and 123 % of control | dose: 25.0 mg/kg/injection, schedule: Q01DX009 (ip), vehicle: Klucel (hydroxypropylcellulose) (HPC) 91 % of control | dose: 25.0 mg/kg/injection, schedule: Q04DX003 (ip), vehicle: Klucel (hydroxypropylcellulose) (HPC) 107 % of control and 117 % of control | dose: 37.5 mg/kg/injection, schedule: Q01DX001 (ip), vehicle: Klucel (hydroxypropylcellulose) (HPC) 103 % of control | dose: 50.0 mg/kg/injection, schedule: Q01DX001 (ip), vehicle: Klucel (hydroxypropylcellulose) (HPC) 123 % of control | [1] 92 % of control | dose: 50.0 mg/kg/injection, schedule: Q04DX003 (ip), vehicle: Klucel (hydroxypropylcellulose) (HPC) 97 % of control and 116 % of control | dose: 75.0 mg/kg/injection, schedule: Q01DX001 (ip), vehicle: Klucel (hydroxypropylcellulose) (HPC) 91 % of control | [2] 110 % of control and 115 % of control and 121 % of control | dose: 100.0 mg/kg/injection, schedule: Q04DX003 (ip), vehicle: Klucel (hydroxypropylcellulose) (HPC) 116 % of control | dose: 150.0 mg/kg/injection, schedule: Q01DX001 (ip), vehicle: Klucel (hydroxypropylcellulose) (HPC) 100 % of control

C=CCNC(=O)Oc1cccc(NC(=O)OCC=C)c1
inactive: dose: 100.0 mg/kg/injection, schedule: Q04DX003 (ip), vehicle: saline with Tween-80 96 % of control | dose: 200.0 mg/kg/injection, schedule: Q04DX003 (ip), vehicle: saline with Tween-80 96 % of control | dose: 400.0 mg/kg/injection, schedule: Q04DX003 (ip), vehicle: saline with Tween-80 102 % of control

Cc1ccc(C)c(NC(=O)c2ccc(C(=O)O)cc2C(=O)O)c1
inactive: [3] 95 % of control | dose: 100.0 mg/kg/injection, schedule: Q04DX002 (ip), vehicle: Klucel (hydroxypropylcellulose) (HPC) 98 % of control | [4] 100 % of control | dose: 200.0 mg/kg/injection, schedule: Q04DX002 (ip), vehicle: Klucel (hydroxypropylcellulose) (HPC) 98 % of control | dose: 400.0 mg/kg/injection, schedule: Q01DX009 (ip), vehicle: Klucel (hydroxypropylcellulose) (HPC) 97 % of control | dose: 400.0 mg/kg/injection, schedule: Q04DX002 (ip), vehicle: Klucel (hydroxypropylcellulose) (HPC) 95 % of control

CC(=O)OCC(I)CC(F)(F)C(F)(F)C(F)(F)F (centres undefined)
inactive: dose: 100.0 mg/kg/injection, schedule: Q01DX001 (ip), vehicle: saline with Tween-80 98 % of control | dose: 200.0 mg/kg/injection, schedule: Q01DX001 (ip), vehicle: saline with Tween-80 103 % of control | dose: 400.0 mg/kg/injection, schedule: Q01DX001 (ip), vehicle: saline with Tween-80 116 % of control

N#Cc1ncc(-c2ccccc2)nc1C#N
inactive: [5] 103 % of control | [6] 100 % of control | dose: 400.0 mg/kg/injection, schedule: Q01DX009 (ip), vehicle: saline with Tween-80 88 % of control

On1nc(-c2ccccc2)c(-c2c(-c3ccccc3)nn(O)c2-c2ccccc2)c1-c1ccccc1
inactive: [1] 90 % of control | [3] 90 % of control | [4] 97 % of control

C#CCN(C)C(C)=O
inactive: dose: 25.0 mg/kg/injection, schedule: Q01DX009 (ip), vehicle: saline 104 % of control | dose: 25.0 mg/kg/injection, schedule: Q04DX003 (ip), vehicle: saline 95 % of control | dose: 50.0 mg/kg/injection, schedule: Q01DX009 (ip), vehicle: saline 102 % of control | dose: 50.0 mg/kg/injection, schedule: Q04DX003 (ip), vehicle: saline 101 % of control | dose: 100.0 mg/kg/injection, schedule: Q01DX009 (ip), vehicle: saline 105 % of control | dose: 100.0 mg/kg/injection, schedule: Q04DX003 (ip), vehicle: saline 96 % of control and 101 % of control

CNc1ccccc1C(=O)NNS(=O)(=O)c1ccc(C)cc1
inactive: dose: 100.0 mg/kg/injection, schedule: Q01DX001 (ip), vehicle: saline 102 % of control | dose: 200.0 mg/kg/injection, schedule: Q01DX001 (ip), vehicle: saline 102 % of control | dose: 400.0 mg/kg/injection, schedule: Q01DX001 (ip), vehicle: saline 90 % of control

CN(C)c1ccc(/C=N/NC(=O)CNC(=O)c2ccc(Cl)c(Cl)c2)cc1
inactive: dose: 50.0 mg/kg/injection, schedule: Q01DX009 (ip), vehicle: saline with Tween-80 86 % of control | [5] 94 % of control | [6] 88 % of control

C(=C\c1cc[n+](CCc2ccccc2)cc1)/c1ccccc1
inactive: dose: 6.25 mg/kg/injection, schedule: Q04DX003 (ip), vehicle: saline with Tween-80 110 % of control | dose: 12.5 mg/kg/injection, schedule: Q04DX003 (ip), vehicle: saline with Tween-80 89 % of control | dose: 25.0 mg/kg/injection, schedule: Q04DX003 (ip), vehicle: saline with Tween-80 101 % of control
